# Results: ChEMBL document CHEMBL1143919, “Sugar Chips immobilized with synthetic sulfated disaccharides of heparin/heparan sulfate partial structure” (Bioorg Med Chem Lett, 2008)
# Experiments:
# [1] = Binding affinity to human recombinant von Willebrand factor A1 domain using surface plasmon resonance imaging sensor
# [2] = target: Fibronectin (Homo sapiens, UniProt P02751); assay: Binding affinity to fibronectin using surface plasmon resonance imaging sensor method
# Chain of Fibronectin (P02751 whole entry): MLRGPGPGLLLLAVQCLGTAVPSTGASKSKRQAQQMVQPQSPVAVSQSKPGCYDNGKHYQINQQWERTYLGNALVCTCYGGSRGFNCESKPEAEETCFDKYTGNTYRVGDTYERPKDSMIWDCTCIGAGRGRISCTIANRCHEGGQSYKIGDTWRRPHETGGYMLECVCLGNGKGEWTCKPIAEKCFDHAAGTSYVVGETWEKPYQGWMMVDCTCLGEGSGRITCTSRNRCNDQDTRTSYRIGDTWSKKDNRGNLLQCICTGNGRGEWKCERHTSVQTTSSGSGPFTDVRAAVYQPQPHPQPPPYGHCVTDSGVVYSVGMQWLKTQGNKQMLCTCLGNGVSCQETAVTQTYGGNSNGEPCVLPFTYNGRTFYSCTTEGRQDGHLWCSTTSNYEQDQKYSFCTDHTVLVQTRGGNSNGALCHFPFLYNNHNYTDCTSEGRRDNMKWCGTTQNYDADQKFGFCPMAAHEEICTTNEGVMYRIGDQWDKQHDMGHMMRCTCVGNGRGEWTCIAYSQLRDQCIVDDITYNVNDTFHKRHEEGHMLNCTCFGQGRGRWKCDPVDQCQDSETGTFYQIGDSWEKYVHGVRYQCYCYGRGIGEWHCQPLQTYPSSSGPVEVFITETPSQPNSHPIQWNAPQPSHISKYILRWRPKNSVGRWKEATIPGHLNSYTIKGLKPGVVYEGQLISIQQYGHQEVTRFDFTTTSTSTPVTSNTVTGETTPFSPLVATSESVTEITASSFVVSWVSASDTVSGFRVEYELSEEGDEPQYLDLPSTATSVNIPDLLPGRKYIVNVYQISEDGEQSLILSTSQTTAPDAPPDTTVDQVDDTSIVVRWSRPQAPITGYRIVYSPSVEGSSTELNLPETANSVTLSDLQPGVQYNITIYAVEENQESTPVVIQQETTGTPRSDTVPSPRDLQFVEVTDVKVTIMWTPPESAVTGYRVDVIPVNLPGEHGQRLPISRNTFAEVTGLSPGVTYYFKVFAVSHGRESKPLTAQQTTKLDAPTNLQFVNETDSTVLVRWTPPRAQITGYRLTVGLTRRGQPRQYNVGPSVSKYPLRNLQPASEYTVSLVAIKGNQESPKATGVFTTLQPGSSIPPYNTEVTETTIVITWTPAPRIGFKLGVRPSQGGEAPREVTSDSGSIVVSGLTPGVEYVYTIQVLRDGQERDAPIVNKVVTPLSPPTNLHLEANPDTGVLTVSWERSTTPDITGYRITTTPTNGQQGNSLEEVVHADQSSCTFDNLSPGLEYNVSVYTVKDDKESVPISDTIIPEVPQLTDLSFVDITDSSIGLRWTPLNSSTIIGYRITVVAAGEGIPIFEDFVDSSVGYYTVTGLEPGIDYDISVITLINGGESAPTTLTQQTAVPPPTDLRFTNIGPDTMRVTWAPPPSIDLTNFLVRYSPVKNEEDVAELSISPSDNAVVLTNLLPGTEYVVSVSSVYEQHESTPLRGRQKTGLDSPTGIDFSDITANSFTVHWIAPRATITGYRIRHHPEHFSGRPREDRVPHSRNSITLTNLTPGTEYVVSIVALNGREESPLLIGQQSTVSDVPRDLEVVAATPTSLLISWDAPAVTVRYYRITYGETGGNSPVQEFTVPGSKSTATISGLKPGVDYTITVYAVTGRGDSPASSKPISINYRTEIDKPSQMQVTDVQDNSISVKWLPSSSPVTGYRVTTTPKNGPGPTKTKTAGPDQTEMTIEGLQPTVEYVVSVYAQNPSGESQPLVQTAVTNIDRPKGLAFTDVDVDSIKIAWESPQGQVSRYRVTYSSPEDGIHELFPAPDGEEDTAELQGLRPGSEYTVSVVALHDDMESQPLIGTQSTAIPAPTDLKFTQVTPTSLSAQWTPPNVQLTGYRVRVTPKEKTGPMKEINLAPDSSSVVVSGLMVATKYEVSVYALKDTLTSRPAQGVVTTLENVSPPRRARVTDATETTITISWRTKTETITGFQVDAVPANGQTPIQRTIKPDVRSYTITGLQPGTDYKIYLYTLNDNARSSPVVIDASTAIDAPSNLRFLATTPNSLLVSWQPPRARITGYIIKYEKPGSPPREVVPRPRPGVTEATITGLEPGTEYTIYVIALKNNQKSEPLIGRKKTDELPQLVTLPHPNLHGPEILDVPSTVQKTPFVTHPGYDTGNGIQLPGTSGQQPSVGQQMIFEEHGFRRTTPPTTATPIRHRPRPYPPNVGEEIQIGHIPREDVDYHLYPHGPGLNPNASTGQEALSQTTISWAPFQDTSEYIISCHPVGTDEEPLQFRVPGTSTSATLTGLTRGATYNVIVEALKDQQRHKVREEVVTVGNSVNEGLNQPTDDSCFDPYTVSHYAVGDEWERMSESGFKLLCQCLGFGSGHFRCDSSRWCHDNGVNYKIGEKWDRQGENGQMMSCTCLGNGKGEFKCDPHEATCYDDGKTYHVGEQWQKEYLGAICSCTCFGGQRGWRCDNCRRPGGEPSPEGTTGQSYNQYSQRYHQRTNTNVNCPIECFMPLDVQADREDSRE
Kd [1],Kd [2],Compound
900 nM,30 nM,CO[C@H]1[C@H](O)[C@@H](NS(=O)(=O)O)[C@@H](O[C@H]2[C@H](O)[C@@H](OS(=O)(=O)O)[C@H](OC[C@@H](O)[C@@H](O)[C@H](O)[C@@H](O)CNc3cccc(NC(=O)CCCCC4CCSS4)c3)O[C@H]2C(=O)O)O[C@@H]1CO (stereo partly drawn)
1400 nM,6.5 nM,CO[C@H]1[C@H](O)[C@@H](NS(=O)(=O)O)[C@@H](O[C@H]2[C@H](O)[C@@H](O)[C@H](OC[C@@H](O)[C@@H](O)[C@H](O)[C@@H](O)CNc3cccc(NC(=O)CCCCC4CCSS4)c3)O[C@@H]2C(=O)O)O[C@@H]1COS(=O)(=O)O (stereo partly drawn)
1000 nM,5.5 nM,CO[C@H]1[C@H](O)[C@@H](NS(=O)(=O)O)[C@@H](O[C@H]2[C@H](O)[C@@H](OS(=O)(=O)O)[C@H](OC[C@@H](O)[C@@H](O)[C@H](O)[C@@H](O)CNc3cccc(NC(=O)CCCCC4CCSS4)c3)O[C@H]2C(=O)O)O[C@@H]1COS(=O)(=O)O (stereo partly drawn)
4300 nM,33 nM,CO[C@H]1[C@H](O)[C@@H](NS(=O)(=O)O)[C@@H](O[C@H]2[C@H](O)[C@@H](O)[C@H](OC[C@@H](O)[C@@H](O)[C@H](O)[C@@H](O)CNc3cccc(NC(=O)CCCCC4CCSS4)c3)O[C@@H]2C(=O)O)O[C@@H]1CO (stereo partly drawn)
